The values below come from US9586936B2, “Heteroarylamine derivatives as protein kinase inhibitors” (KOREA INSTITUTE OF SCIENCE AND TECHNOLOGY, priority 2014, dated 2017).

A value given as a limit tells only on which side of the number the result lay.

Data set [1] has as its system bladder cancer cell line RT112. Description: inhibition of proliferation of cancer cells. Type of data set: cell-based. The settings on record: Homo sapiens, RT-112, read-out: Ability of inhibiting proliferation of RT112 (GI50). On the procedure:
The ability of the compound of the present invention of inhibiting the proliferation of the bladder cancer cell line RT112 was determined as the GI50 value.

A short description of data set [2]: microsomal stability. The class given is in vitro ADME, Human. The conditions noted are these: Human. On the procedure: (§1) The microsomal stability of N-(2,6-dichloro-3,5-dimethoxyphenyl)-1-(6-((4-(4-ethylpiperazin-1-yl)phenyl)amino)pyrimidin-4-yl)-1H-benz[d]imidazol-2-amine synthesized in Example 1, as a representative compound of the present invention, was evaluated.

Data set [3] in a line: microsomal stability. The class given is in vitro ADME, Dog. The settings on record: Dog. On the procedure: as §1
Data set [4] can be described thus: microsomal stability. Type of data set: in vitro ADME, Mouse. The conditions noted are these: Mouse. On the procedure: as §1
Data set [5] can be described thus: microsomal stability. The class given is in vitro ADME, Rat. The conditions noted are these: Rat. On the procedure: as §1
For data set [6], the target named is FGFR3 (Homo sapiens, UniProt P22607). The settings on record: literature statement; cited from earlier work.
In data set [7] the test system is RT112 bladder cancer cell line. The conditions noted are these: literature statement; cited from earlier work.

FGFR3, sequence (P22607 23-806): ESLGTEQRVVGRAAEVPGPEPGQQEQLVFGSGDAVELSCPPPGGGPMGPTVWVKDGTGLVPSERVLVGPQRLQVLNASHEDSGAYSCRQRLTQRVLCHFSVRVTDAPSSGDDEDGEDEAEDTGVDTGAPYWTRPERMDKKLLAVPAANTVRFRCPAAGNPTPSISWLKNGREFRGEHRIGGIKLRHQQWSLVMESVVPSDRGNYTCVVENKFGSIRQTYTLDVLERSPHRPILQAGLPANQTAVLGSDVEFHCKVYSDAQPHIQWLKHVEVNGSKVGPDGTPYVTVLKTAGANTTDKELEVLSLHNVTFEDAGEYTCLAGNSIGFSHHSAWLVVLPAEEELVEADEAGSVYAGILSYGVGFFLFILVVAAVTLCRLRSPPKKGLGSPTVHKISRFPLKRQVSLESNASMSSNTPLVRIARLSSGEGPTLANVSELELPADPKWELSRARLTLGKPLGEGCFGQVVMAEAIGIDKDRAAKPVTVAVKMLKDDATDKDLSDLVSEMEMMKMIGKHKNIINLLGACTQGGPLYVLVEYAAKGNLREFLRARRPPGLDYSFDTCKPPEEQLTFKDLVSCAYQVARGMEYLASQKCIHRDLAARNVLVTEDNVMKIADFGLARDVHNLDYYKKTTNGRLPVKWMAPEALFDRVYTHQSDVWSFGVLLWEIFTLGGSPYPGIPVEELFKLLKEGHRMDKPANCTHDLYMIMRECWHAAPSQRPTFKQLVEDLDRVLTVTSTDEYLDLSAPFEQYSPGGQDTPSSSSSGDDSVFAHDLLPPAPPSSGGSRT

`COc1cc(N2CCN(C)CC2)ccc1Nc1cc(-n2c(Nc3c(Cl)c(OC)cc(OC)c3Cl)nc3ccccc32)ncn1` [Example 2, N-(2,6-dichloro-3,5-dimethoxyphenyl)-1-(6-((2-methoxy-4-(4-methylpiperazin-1-yl)phenyl)amino)pyrimidin-4-yl)-1H-benz[d]imidazol-2-amine]: the GI50 in data set [1] was < 1000 nM.
Regarding `COc1cc(N2CCOCC2)ccc1Nc1cc(-n2c(Nc3c(Cl)c(OC)cc(OC)c3Cl)nc3ccccc32)ncn1` [Example 4, N-(2,6-dichloro-3,5-dimethoxyphenyl)-1-(6-((2-methoxy-4-morpholinophenyl)amino)pyrimidin-4-yl)-1H-benz[d]imidazol-2-amine], the GI50 in data set [1] is < 1000 nM.
With `CNc1cc(-n2c(Nc3c(Cl)c(OC)cc(OC)c3Cl)nc3ccccc32)ncn1` [Example 9, N-(2,6-dichloro-3,5-dimethoxyphenyl)-1-(6-(methylamino)pyrimidin-4-yl)-1H-benz[d]imidazol-2-amine], in data set [1], the GI50 is < 1000 nM.
Consider `COc1cc(OC)c(Cl)c(Nc2nc3ccccc3n2-c2cc(Nc3ccccc3)ncn2)c1Cl` [Example 10, N-(2,6-dichloro-3,5-dimethoxyphenyl)-1-(6-(phenylamino)pyrimidin-4-yl)-1H-benz[d]imidazol-2-amine], for which the GI50 in data set [1] was < 1000 nM.
Still for that read-out and setting: the result for `COc1cc(OC)c(Cl)c(Nc2nc3ccccc3n2-c2cc(Nc3ncccn3)ncn2)c1Cl` [Example 11, N-(2,6-dichloro-3,5-dimethoxyphenyl)-1-(6-(pyrimidin-2-ylamino)pyrimidin-4-yl)-1H-benz[d]imidazol-2-amine] reads < 1000 nM; that for `COc1cc(OC)c(Cl)c(Nc2nc3ccccc3n2-c2cc(Nc3ccc(N4CCC(N5CCCCC5)CC4)c(C(F)(F)F)c3)ncn2)c1Cl` [Example 5, 1-(6-((4-([1,4′-bipiperidin]-1′-yl)-3-(trifluoromethyl)phenyl)amino)pyrimidin-4-yl)-N-(2,6-dichloro-3,5-dimethoxyphenyl)-1H-benz[d]imidazol-2-amine], < 10000 nM; that for `COc1cc(OC)c(Cl)c(Nc2nc3ccccc3n2-c2cc(Nc3ccc(CN4CCN(CC5CCCCC5)CC4)cc3)ncn2)c1Cl` [Example 6, 1-(6-((4-((4-(cyclohexylmethyl)piperazin-1-yl)methyl)phenyl)amino)pyrimidin-4-yl)-N-(2,6-dichloro-3,5-dimethoxyphenyl)-1H-benz[d]imidazol-2-amine], < 10000 nM.
Same read-out and setting: under `COc1cc(OC)c(Cl)c(Nc2nc3ccccc3n2-c2cc(N)ncn2)c1Cl` [Example 8] stands < 1000 nM.
Consider `Cc1ncc2n1-c1ccc(Cl)cc1C(c1ccccc1F)=NC2` [midazolam, reference compound], for which the “microsomal stability (% at time)” value in data set [2] (0 min) came out at 100.00%; in data set [2] (5 min), 38.75%; in data set [2] (10 min) it was 12.92%; in data set [2] (15 min), 5.60%; in data set [2] (30 min), 0.73%; in data set [3] (0 min), 100.00%. Also, the “microsomal stability (% at time)” value came to 6.23% in data set [3] (5 min); 0.59% in data set [3] (10 min); 0.27% in data set [3] (15 min); 0.10% in data set [3] (30 min); 100.00% in data set [4] (0 min); 10.42% in data set [4] (5 min). For the same compound, the “microsomal stability (% at time)” value amounted to 1.13% in data set [4] (10 min); 0.18% in data set [4] (15 min); 0.05% in data set [4] (30 min); 100.00% in data set [5] (0 min); 13.65% in data set [5] (5 min); 1.01% in data set [5] (10 min). Further, the results for the “microsomal stability (% at time)” value in data set [5] (15 min) and in data set [5] (30 min) were 0.14% and 0.04%, respectively.
For the compound `COc1cc(OC)c(Cl)c(Nc2nc3ccccc3n2-c2cc(Nc3ccc(N4CCOCC4)cc3)ncn2)c1Cl` [Example 3, N-(2,6-dichloro-3,5-dimethoxyphenyl)-1-(6-((4-morpholinophenyl)amino)pyrimidin-4-yl)-1H-benz[d]imidazol-2-amine], in data set [1], the GI50 was < 1000 nM.
`CCN1CCN(c2ccc(Nc3cc(N(C)C(=O)Nc4c(Cl)c(OC)cc(OC)c4Cl)ncn3)cc2)CC1` [NVP-BGJ398, 3-(2,6-dichloro-3,5-dimethoxyphenyl)-1-{6-[4-(4-ethyl-piperazin-1-yl)phenylamino]pyrimidin-4-yl}-1-methylurea]: the “inhibition activity against FGFR3, in words” value in data set [6] is reported as “selective inhibition activity”. The “anticancer activity for the RT112 bladder cancer cell line, in words” value in data set [7] was “effective anticancer activity”.
